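Cells were grown in 96-well plates and exposed to each compound for 48 hours at five concentrations; endpoints were interpolated linearly between bracketing concentrations, or set to the highest concentration if not reached. TGI: concentration producing complete growth inhibition.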
Key:
Assay in all cases: NCI anticancer screen, dose series, 48 h
786-0 renal = system: 786-0 renal
A498 renal = system: A498 renal
A549 NSCLC = system: A549 NSCLC
ACHN renal = system: ACHN renal
BT-549 breast = system: BT-549 breast
CAKI-1 renal = system: CAKI-1 renal
CCRF-CEM leukemia = system: CCRF-CEM leukemia
DU-145 prostate = system: DU-145 prostate
EKVX NSCLC = system: EKVX NSCLC
HCC-2998 colon = system: HCC-2998 colon
HCT-116 colon = system: HCT-116 colon
HCT-15 colon = system: HCT-15 colon
HL-60(TB) leukemia = system: HL-60(TB) leukemia
HOP-62 NSCLC = system: HOP-62 NSCLC
HOP-92 NSCLC = system: HOP-92 NSCLC
HS 578T breast = system: HS 578T breast
HT29 colon = system: HT29 colon
IGROV1 ovarian = system: IGROV1 ovarian
K-562 leukemia = system: K-562 leukemia
KM12 colon = system: KM12 colon
LOX IMVI melanoma = system: LOX IMVI melanoma
M14 melanoma = system: M14 melanoma
MALME-3M melanoma = system: MALME-3M melanoma
MCF7 breast = system: MCF7 breast
MDA-MB-231 breast = system: MDA-MB-231 breast
MDA-MB-435 = system: MDA-MB-435
MDA-N = system: MDA-N
MOLT-4 leukemia = system: MOLT-4 leukemia
NCI-H23 lung = system: NCI-H23 lung
NCI-H460 lung = system: NCI-H460 lung
NCI-H522 lung = system: NCI-H522 lung
NCI/ADR-RES ovarian = system: NCI/ADR-RES ovarian
OVCAR-3 ovarian = system: OVCAR-3 ovarian
OVCAR-4 ovarian = system: OVCAR-4 ovarian
OVCAR-5 ovarian = system: OVCAR-5 ovarian
OVCAR-8 ovarian = system: OVCAR-8 ovarian
PC-3 prostate = system: PC-3 prostate
RPMI-8226 leukemia = system: RPMI-8226 leukemia
RXF 393 renal = system: RXF 393 renal
SF-268 CNS = system: SF-268 CNS
SK-MEL-2 melanoma = system: SK-MEL-2 melanoma
SK-OV-3 ovarian = system: SK-OV-3 ovarian
SN12C renal = system: SN12C renal
SNB-19 CNS = system: SNB-19 CNS
SNB-75 CNS = system: SNB-75 CNS
SR leukemia = system: SR leukemia
SW-620 colon = system: SW-620 colon
T-47D breast = system: T-47D breast
TK-10 renal = system: TK-10 renal
U251 CNS = system: U251 CNS
UACC-257 melanoma = system: UACC-257 melanoma
UACC-62 melanoma = system: UACC-62 melanoma
UO-31 renal = system: UO-31 renal
COLO 205 colon = system: COLO 205 colon
NCI-H226 lung = system: NCI-H226 lung
SF-295 CNS = system: SF-295 CNS
SF-539 CNS = system: SF-539 CNS
SK-MEL-28 melanoma = system: SK-MEL-28 melanoma
SK-MEL-5 melanoma = system: SK-MEL-5 melanoma

## CC#CC#C/C=C1/O[C@]2(CCC(OC(=O)CC(C)C)CO2)[C@@H]2O[C@H]12 (stereo not given in full)
786-0 renal
  TGI: 49.3 µM
A498 renal
  TGI: > 100 µM
A549 NSCLC
  TGI: > 100 µM
ACHN renal
  TGI: 44.7 µM
BT-549 breast
  TGI: 56.3 µM
CAKI-1 renal
  TGI: 34.7 µM
CCRF-CEM leukemia
  TGI: 27.5 µM
DU-145 prostate
  TGI: > 100 µM
EKVX NSCLC
  TGI: 84.3 µM
HCC-2998 colon
  TGI: 37.5 µM
HCT-116 colon
  TGI: 33.3 µM
HCT-15 colon
  TGI: 53.1 µM
HL-60(TB) leukemia
  TGI: 42.9 µM
HOP-62 NSCLC
  TGI: > 100 µM
HOP-92 NSCLC
  TGI: 66 µM
HS 578T breast
  TGI: > 100 µM
HT29 colon
  TGI: 35.4 µM
IGROV1 ovarian
  TGI: > 100 µM
K-562 leukemia
  TGI: > 100 µM
KM12 colon
  TGI: > 100 µM
LOX IMVI melanoma
  TGI: 35.9 µM
M14 melanoma
  TGI: 47.7 µM
MALME-3M melanoma
  TGI: 47.7 µM
MCF7 breast
  TGI: > 100 µM
MDA-MB-231 breast
  TGI: 62.7 µM
MDA-MB-435
  TGI: 60.4 µM
MDA-N
  TGI: 54.3 µM
MOLT-4 leukemia
  TGI: 54.6 µM
NCI-H23 lung
  TGI: 60 µM
NCI-H460 lung
  TGI: > 100 µM
NCI-H522 lung
  TGI: 37.4 µM
NCI/ADR-RES ovarian
  TGI: 64.4 µM
OVCAR-3 ovarian
  TGI: 52.3 µM
OVCAR-4 ovarian
  TGI: > 100 µM
OVCAR-5 ovarian
  TGI: 72.9 µM
OVCAR-8 ovarian
  TGI: > 100 µM
PC-3 prostate
  TGI: 72.5 µM
RPMI-8226 leukemia
  TGI: 50.3 µM
RXF 393 renal
  TGI: 42.2 µM
SF-268 CNS
  TGI: 54.1 µM
SK-MEL-2 melanoma
  TGI: 52.5 µM
SK-OV-3 ovarian
  TGI: > 100 µM
SN12C renal
  TGI: 41.2 µM
SNB-19 CNS
  TGI: > 100 µM
SNB-75 CNS
  TGI: > 100 µM
SR leukemia
  TGI: > 100 µM
SW-620 colon
  TGI: 43.7 µM
T-47D breast
  TGI: 48.3 µM
TK-10 renal
  TGI: 61.3 µM
U251 CNS
  TGI: 54.6 µM
UACC-257 melanoma
  TGI: > 100 µM
UACC-62 melanoma
  TGI: 66.6 µM
UO-31 renal
  TGI: 36.5 µM

## O=C(CSc1nc2ccccc2c2ccccc12)c1ccccc1
786-0 renal
  TGI: > 100 µM
A498 renal
  TGI: > 100 µM
A549 NSCLC
  TGI: > 100 µM
ACHN renal
  TGI: > 100 µM
BT-549 breast
  TGI: > 100 µM
CAKI-1 renal
  TGI: > 100 µM
COLO 205 colon
  TGI: > 100 µM
DU-145 prostate
  TGI: > 100 µM
EKVX NSCLC
  TGI: > 100 µM
HCT-116 colon
  TGI: > 100 µM
HCT-15 colon
  TGI: > 100 µM
HL-60(TB) leukemia
  TGI: > 100 µM
HOP-62 NSCLC
  TGI: > 100 µM
HOP-92 NSCLC
  TGI: > 100 µM
HS 578T breast
  TGI: 0.0967 µM
HT29 colon
  TGI: > 100 µM
IGROV1 ovarian
  TGI: > 100 µM
K-562 leukemia
  TGI: > 100 µM
KM12 colon
  TGI: > 100 µM
LOX IMVI melanoma
  TGI: > 100 µM
M14 melanoma
  TGI: > 100 µM
MALME-3M melanoma
  TGI: > 100 µM
MCF7 breast
  TGI: > 100 µM
MDA-MB-231 breast
  TGI: > 100 µM
MDA-MB-435
  TGI: > 100 µM
MDA-N
  TGI: > 100 µM
MOLT-4 leukemia
  TGI: > 100 µM
NCI-H226 lung
  TGI: > 100 µM
NCI-H23 lung
  TGI: > 100 µM
NCI-H460 lung
  TGI: > 100 µM
NCI-H522 lung
  TGI: > 100 µM
NCI/ADR-RES ovarian
  TGI: > 100 µM
OVCAR-3 ovarian
  TGI: > 100 µM
OVCAR-4 ovarian
  TGI: > 100 µM
OVCAR-5 ovarian
  TGI: > 100 µM
OVCAR-8 ovarian
  TGI: > 100 µM
PC-3 prostate
  TGI: > 100 µM
RPMI-8226 leukemia
  TGI: > 100 µM
RXF 393 renal
  TGI: > 100 µM
SF-268 CNS
  TGI: > 100 µM
SF-295 CNS
  TGI: > 100 µM
SF-539 CNS
  TGI: > 100 µM
SK-MEL-2 melanoma
  TGI: > 100 µM
SK-MEL-28 melanoma
  TGI: > 100 µM
SK-MEL-5 melanoma
  TGI: > 100 µM
SN12C renal
  TGI: > 100 µM
SNB-19 CNS
  TGI: > 100 µM
SNB-75 CNS
  TGI: 57.9 µM
SR leukemia
  TGI: > 100 µM
SW-620 colon
  TGI: > 100 µM
T-47D breast
  TGI: > 100 µM
TK-10 renal
  TGI: > 100 µM
U251 CNS
  TGI: > 100 µM
UACC-257 melanoma
  TGI: > 100 µM
UACC-62 melanoma
  TGI: > 100 µM
UO-31 renal
  TGI: > 100 µM

## O=C1C(Cl)C(c2cc3cc(Br)ccc3nc2Cl)N1c1ccc(F)c(Cl)c1 (stereo not given)
786-0 renal
  TGI: 2.25 µM
A498 renal
  TGI: 15.1 µM
A549 NSCLC
  TGI: 43.5 µM
ACHN renal
  TGI: 24.2 µM
BT-549 breast
  TGI: 25.9 µM
COLO 205 colon
  TGI: 22.5 µM
DU-145 prostate
  TGI: 22.1 µM
EKVX NSCLC
  TGI: 3.62 µM
HCC-2998 colon
  TGI: 21.7 µM
HCT-116 colon
  TGI: 18.9 µM
HCT-15 colon
  TGI: 27.6 µM
HL-60(TB) leukemia
  TGI: 18.6 µM
HOP-62 NSCLC
  TGI: 6.39 µM
HOP-92 NSCLC
  TGI: 2.72 µM
HS 578T breast
  TGI: 75 µM
HT29 colon
  TGI: 26.5 µM
IGROV1 ovarian
  TGI: 2.14 µM
K-562 leukemia
  TGI: 17 µM
KM12 colon
  TGI: 7.77 µM
M14 melanoma
  TGI: 21.8 µM
MALME-3M melanoma
  TGI: 22.8 µM
MCF7 breast
  TGI: 20.1 µM
MDA-MB-231 breast
  TGI: 24.8 µM
MDA-MB-435
  TGI: 17.7 µM
MDA-N
  TGI: 22.3 µM
MOLT-4 leukemia
  TGI: 4.74 µM
NCI-H226 lung
  TGI: 40.2 µM
NCI-H23 lung
  TGI: 19 µM
NCI-H460 lung
  TGI: 24.4 µM
NCI-H522 lung
  TGI: 0.719 µM
NCI/ADR-RES ovarian
  TGI: 29.8 µM
OVCAR-3 ovarian
  TGI: 12.8 µM
OVCAR-4 ovarian
  TGI: 4.96 µM
OVCAR-5 ovarian
  TGI: 24.8 µM
OVCAR-8 ovarian
  TGI: 54 µM
PC-3 prostate
  TGI: 34.2 µM
RPMI-8226 leukemia
  TGI: 5.23 µM
RXF 393 renal
  TGI: 17.3 µM
SF-268 CNS
  TGI: 14.2 µM
SF-295 CNS
  TGI: 23.4 µM
SF-539 CNS
  TGI: 3.66 µM
SK-MEL-2 melanoma
  TGI: 23.5 µM
SK-MEL-28 melanoma
  TGI: 34.5 µM
SK-MEL-5 melanoma
  TGI: 19.8 µM
SK-OV-3 ovarian
  TGI: 26.9 µM
SN12C renal
  TGI: 20.5 µM
SNB-19 CNS
  TGI: 23.1 µM
SNB-75 CNS
  TGI: 21.4 µM
SR leukemia
  TGI: 2.61 µM
SW-620 colon
  TGI: 33 µM
T-47D breast
  TGI: 27.4 µM
TK-10 renal
  TGI: 17 µM
U251 CNS
  TGI: 12.5 µM
UACC-257 melanoma
  TGI: 25.7 µM
UACC-62 melanoma
  TGI: 21.2 µM
UO-31 renal
  TGI: 0.29 µM
